According to paper PMC5730604:
Residues, ends and D or L forms follow the SMILES beside them. *: point of attachment. PEG28 = NCCOCCOCCOCCOCCOCCOCCOCCOCCOCCOCCOCCOCCOCCOCCOCCOCCOCCOCCOCCOCCOCCOCCOCCOCCOCCOCCOCCOCCC(=O)O; For = O=C*

How the values were obtained:
mouse skin = experiment: Local skin inflammation model, immune cell infiltration; assay type: in vivo; settings: mouse skin, 24 h after subcutaneous injection of 100 nmol in Matrigel, HE sections
Experimental: Animals: Eighth Edition. W ashington, DC: The National Academies Press, 2011) were […]
Committee (LANUV AZ. 87- 51.04.2010.A278). All experiments were performed in the Institute […]
GmbH (Sulzf eld, Germany) were used. Mice were housed in individual ventilated cages under […]
humidity and a 12h dark/light cycle.
Soest, Germany) was given ad libitum. Guinea pigs were housed in conventional open cages in the same way as describe for mice. Animals were allowed to acclimatize to their […]
additional immunohistochemical stainings with antibodies against granulocytes/monocytes

human granulocytes = experiment: Oxidative burst (dihydro-rhodamine oxidation) assay; assay type: cell-based; settings: compared with the non-PEGylated effector
Experimental: Activation of the oxidative burst (phagocyte NADPH oxidase) was measured using a
dihydrorhodamine (DHR, Molecular Probes) oxidation assay, based on a method described
previously1. In brief, 200 µl samples of human, murine or guinea pig leukocytes (1.25x 106
cells/ml in HHBS + 10 mM Hepes, pH 7.3, 0.3% BSA and 5 mM EDTA) were loaded with DHR
and catalase (Sigma-Aldrich) and cytochalasin B (Sigma-Aldrich) were added. Cells were pre-
incubated at 37°C for 10 min followed by the addition of 50 µl of effector dilutions (5x the
intended concentration) in the same buffer and another 15 min of incubation at 37°C. Phorbol
(§1) 12- m yr ist oyl 13-acetate (P MA , 3 µg/ml) was used as a positive control. All samples were f ixed
(§2) in 1% formaldehyde Hoechst 33258 solution (0.5 µg/ml) was added and cells were k ept on ice
(§3) until analysis using a FACS Canto system. After gating for live cells and granulocytes (human
(§4) cells) or non- lymphocytes (murine cells) in the FSC/SSC plot, rhodamine-positive cells were
(§5) identif ied in a PE/SSC plot, using an unstimulated sample as a reference.
(§6) Human monocytes, after an overnight pre- culture, were incubated f or 6 more hours in 1 ml
(§7) RPMI+10% FCS containing 100 nM F2- 2PEG, 0.1 ng/ml LPS (Sigma- Aldrich), or no stimulus.
(§8) All experiments were performed in duplicates. […]

human monocytes = experiment: Cytokine release assay (ELISA); assay type: cell-based; settings: 6 h incubation
Experimental: Phorbol
as §1, §2, §3, §4, §5, §6, §7
All experiments were performed in duplicates. Supernatants were centrif uged and aliq uot s of
150 µl were stored at - 80 °C until cytokine levels were measured with commercially available
ELISA kits (Ready-set-go system, eBiosciences). Cytokine concentrations in supernatants
were measured and calculated based on the standards included wit hin the ELISA kits and as
described by the manufacturer’s instructions. The following k its were used: Human TNFα (88-
analysis. Measured cytok ine levels were normalized to 1 (the average of the two unstimulated

human leukocytes = experiment: Chemotaxis assay; assay type: cell-based; settings: compared with the non-PEGylated effector
Experimental: Human leukocytes were re-suspended in Hank ’s Buffered Saline Solution (HBSS, without
Ca2+, Mg 2+) with 10 mM Hepes pH 7.3 and 0.3% BSA at 10^7 cells/ml. Cells were pre-warmed
at 37°C for 20 min. After adding the effector dilutions in the lower compartment of 24-well plates
(800 µl/well), a Millicell culture plate insert with 5 µm pore size was placed in each well, f ollowed
by immediate addition of 200 µl (2 million) leuk ocytes. In one well, the cells were added without
a f ilter insert, allowing determination of the input number. The plate was incubated at 37°C and
5% CO2 f or 45 min. 5 mM EDTA solution was added and the plate was incubated f or another
10 min at 37 °C. […]
Phorbol
as §1, §2, §3, §4, §5, §6, §7, §8

[1] = 100 nM F2-2PEG or 0.1 ng/ml LPS

CC[C@H](C)[C@H](NC(=O)[C@H](CCSC)NC=O)C(=O)N[C@@H](Cc1ccccc1)C(=O)N[C@@H](CC(C)C)C(=O)NCC(=O)NCC(=O)N[C@@H](CCCCNC(=O)CCOCCOCCOCCOCCOCCOCCOCCOCCOCCOCCOCCOCCOCCOCCOCCOCCOCCOCCOCCOCCOCCOCCOCCOCCOCCOCCOCCOCCN)C(=O)N[C@@H](CCCCNC(=O)CCOCCOCCOCCOCCOCCOCCOCCOCCOCCOCCOCCOCCOCCOCCOCCOCCOCCOCCOCCOCCOCCOCCOCCOCCOCCOCCOCCOCCN)C(=O)O [F2-2PEG] (For-MIFLGGK(PEG28)K(PEG28)-OH)
immune cell infiltration at the injection site (mouse skin): clearly showed infiltration by immune cells | loss of potency for neutrophil activation (superoxide production) when linked to the PEG chains (human granulocytes): 1–2 orders of magnitude | IL-1β secreted (human monocytes; 100 nM F2-2PEG): increased | IL-6 level (human monocytes; [1]): not significantly increased | IL-8 level (human monocytes; [1]): not significantly increased | TNFα level (human monocytes; [1]): not significantly increased | loss of potency to induce chemotaxis when linked to the PEG chains (human leukocytes): 1–2 orders of magnitude
